Data as given in patent US6660769B1, “N substituted 3-amino-2,2-di-c-alkyl-1,4-butyrolactones and 1,4-thiobutyrolactones for use as promoter of γ-aminobutyric acid activity and for treating nervous disorders and preparation method” (priority 1999, dated 2003).
“And” between values parts separate entries of the source, which are not always exact repeats. Equal entries are not always repeated. Where two headings read alike, the source gives them in different places.

What was measured:
[1] = target: T1, α1β2γ2 recombinant GABA-A receptors (Homo sapiens, UniProt P14867+P18507+P47870); assay: cell-based
T1 construct: expressed in transfected cells; host or cells: Xenopus laevis oocytes injected with cRNA
T1 sequence (P14867 28-456): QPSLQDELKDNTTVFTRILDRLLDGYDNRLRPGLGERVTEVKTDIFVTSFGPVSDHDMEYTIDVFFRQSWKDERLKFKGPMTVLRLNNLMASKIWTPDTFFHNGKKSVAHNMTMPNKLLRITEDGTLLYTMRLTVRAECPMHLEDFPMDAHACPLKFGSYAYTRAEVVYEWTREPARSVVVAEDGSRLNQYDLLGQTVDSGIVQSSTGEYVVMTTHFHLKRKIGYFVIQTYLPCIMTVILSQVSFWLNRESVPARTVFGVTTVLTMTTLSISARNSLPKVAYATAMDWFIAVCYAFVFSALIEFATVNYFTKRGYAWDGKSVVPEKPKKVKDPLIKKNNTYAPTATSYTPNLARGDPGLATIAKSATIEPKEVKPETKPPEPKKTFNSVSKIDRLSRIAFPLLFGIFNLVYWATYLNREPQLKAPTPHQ
T1 sequence (P47870 25-512 limits assumed): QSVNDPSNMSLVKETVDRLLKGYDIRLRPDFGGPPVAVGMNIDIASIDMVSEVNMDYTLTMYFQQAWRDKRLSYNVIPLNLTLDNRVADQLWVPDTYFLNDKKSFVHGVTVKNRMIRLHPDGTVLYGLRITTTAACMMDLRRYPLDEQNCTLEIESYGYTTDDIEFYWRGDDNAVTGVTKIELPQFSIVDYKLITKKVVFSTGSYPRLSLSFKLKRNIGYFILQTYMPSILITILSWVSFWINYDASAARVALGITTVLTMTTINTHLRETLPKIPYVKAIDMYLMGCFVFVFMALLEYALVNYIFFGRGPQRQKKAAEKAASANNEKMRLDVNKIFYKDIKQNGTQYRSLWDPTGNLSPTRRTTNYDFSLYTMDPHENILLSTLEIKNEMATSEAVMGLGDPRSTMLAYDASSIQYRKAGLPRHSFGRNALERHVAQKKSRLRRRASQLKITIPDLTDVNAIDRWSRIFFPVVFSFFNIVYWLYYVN
T1 sequence (P18507 40-475): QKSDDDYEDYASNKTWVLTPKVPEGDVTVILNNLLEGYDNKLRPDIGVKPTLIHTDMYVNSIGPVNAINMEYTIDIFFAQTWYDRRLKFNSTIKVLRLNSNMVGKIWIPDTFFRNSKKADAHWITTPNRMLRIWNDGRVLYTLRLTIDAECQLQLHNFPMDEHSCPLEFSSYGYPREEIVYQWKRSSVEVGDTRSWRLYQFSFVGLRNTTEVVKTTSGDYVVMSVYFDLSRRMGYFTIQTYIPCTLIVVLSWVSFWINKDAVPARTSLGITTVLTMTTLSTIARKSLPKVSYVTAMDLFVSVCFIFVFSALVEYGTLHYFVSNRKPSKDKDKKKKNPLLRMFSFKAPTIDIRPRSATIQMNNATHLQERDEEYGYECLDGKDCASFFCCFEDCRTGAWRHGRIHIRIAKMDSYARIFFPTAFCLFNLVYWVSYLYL

[2] = tested on: picrotoxin binding site of the GABA-A receptor; details: for IC50: read-out: IC50 of S^35-TBPS displacement
[3] = tested on: GABA binding site of the GABA-A receptor; assay: [H3]muscimol displacement, brain membranes; details: 100 μM
[4] = tested on: benzodiazepine binding site of the GABA-A receptor; assay: [H3]flunitrazepam displacement, brain membranes
[5] = Solubility noted in the electrophysiological test
mice = details: attacks induced by pentylenetetrazole and picrotoxin; cited from earlier work
[6] = tested on: GABA currents in cultured neurons; details: cited from earlier work
[7] = target: picrotoxin binding site of the GABA-A receptor; details: published compounds; read-out: Displacement of S^35-TBPS (IC50); cited from earlier work
[8] = 200 μM, α1β2γ2, read-out: % of stimulation of the GABA currents
[9] = α1β2γ2, read-out: % of stimulation of the GABA currents

3-Benzylamino-3,3-di(C-allyl)-1,4-butyrolactone [Compound 16]
% of stimulation of the GABA currents ([1]; 200 μM, α1β2γ2): +115 ± 30%
Inhibition of the radiolabeled ligands % TBPS ([2]; 100 μM): 62%

C[C@H]1C(=O)OC[C@H]1NC(=O)OCc1ccccc1 (relative stereo) [Compound 27, cis-3-benzyloxycarbonylamino-2-(C-methyl)-1,4-butyrolactone]
% of stimulation of the GABA currents ([1]; 50 μM, α1β2γ2): −1 ± 2%
stimulation of muscimol binding (printed in the % Muscimol inhibition column) [3]: 10% stimulation
Inhibition of the radiolabeled ligands % TBPS ([2]; 100 μM): 0%
Inhibition of the radiolabeled ligands % Flu ([4]; 100 μM): 0%

C[C@@H]1C(=O)OC[C@H]1NC(=O)OCc1ccccc1 (relative stereo) [Compound 28, trans-3-benzyloxycarbonylamino-2-(C-methyl)-1,4-butyrolactone]
stimulating activities for the GABA current (in words) [1]: low stimulating activities
% of stimulation of the GABA currents ([1]; 50 μM, α1β2γ2): −7 ± 7%
Inhibition of the radiolabeled ligands % Muscimol [3]: 0%
Inhibition of the radiolabeled ligands % TBPS ([2]; 100 μM): 0%
Inhibition of the radiolabeled ligands % Flu ([4]; 100 μM): 0%

C[C@@H]1C(=O)OC[C@H]1N(Cc1ccccc1)C(=O)OCc1ccccc1 (relative stereo) [Compound 42, trans-3-(N-benzyl-N-benzyloxycarboyl)amino-2-(C-methyl)-1,4-butyrolactone]
% of stimulation of the GABA currents ([1]; 200 μM, α1β2γ2): +3 ± 10%
Inhibition of the radiolabeled ligands % TBPS ([2]; 10 μM): 15%
Inhibition of the radiolabeled ligands % TBPS ([2]; 100 μM): 52%
Inhibition of the radiolabeled ligands % Flu ([4]; 100 μM): 0%

C[C@@H]1C(=O)OC[C@@H]1N(Cc1ccccc1)C(=O)OCc1ccccc1 (relative stereo) [Compound 43, cis-3-(N-benzyl-N-benzyloxycarboyl)amino-2-(C-methyl)-1,4-butyrolactone]
% of stimulation of the GABA currents ([1]; 200 μM, α1β2γ2): −3 ± 3%
Inhibition of the radiolabeled ligands % Muscimol [3]: 0%
Inhibition of the radiolabeled ligands % TBPS ([2]; 10 μM): 35%
Inhibition of the radiolabeled ligands % TBPS ([2]; 100 μM): 60%
Inhibition of the radiolabeled ligands % Flu ([4]; 10 μM): 20%
Inhibition of the radiolabeled ligands % Flu ([4]; 100 μM): 30%

O=C1CC(NC(=O)OCc2ccccc2)CO1 (centres unmarked) [Compound 26, 3-Benzyloxycarbonylamino-1,4-butyrolactone]
stimulating activities for the GABA current (in words) [1]: low stimulating activities
% of stimulation of the GABA currents ([1]; 0.1 μM, α1β2γ2): +47 ± 90%
% of stimulation of the GABA currents ([1]; 200 μM, α1β2γ2): +47 ± 9%
Inhibition of the radiolabeled ligands % Muscimol [3]: 0%
Inhibition of the radiolabeled ligands % TBPS ([2]; 100 μM): 0%
Inhibition of the radiolabeled ligands % Flu ([4]; 100 μM): 0%

CCCC1(CCC)C(=O)OCC1NC(=O)OCc1ccccc1 (centres unmarked) [Compound 30, 3-Benzyloxycarbonylamino-2,2-(C-dipropyl)-1,4-butyrolactone]
activation at 1 µM ([1]; 1 μM, α1β2γ2, read-out: % of stimulation of the GABA currents): 15%
activation at 10 µM ([1]; 10 μM, α1β2γ2, read-out: % of stimulation of the GABA currents): 140%
activation at 50 µM ([1]; 50 μM, α1β2γ2, read-out: % of stimulation of the GABA currents): 250%
activation at 200 µM [1, 8]: 51%
Inhibition of the radiolabeled ligands % Muscimol [3]: 0%
Inhibition of the radiolabeled ligands % TBPS ([2]; 10 μM): 0 10 μM) %
Inhibition of the radiolabeled ligands % TBPS ([2]; 100 μM): 55%
Inhibition of the radiolabeled ligands % Flu ([4]; 100 μM): 0%

CCCC1(CCC)C(=O)OCC1NS(=O)(=O)c1ccc(Cl)cc1 (centres unmarked) [Compound 31, 3-(p-Chlorophenylsulfonamido)-2,2-di(C-propyl)-1,4-butyrolactone]
activation at 5 µM ([1]; 5 μM, α1β2γ2, read-out: % of stimulation of the GABA currents): 23%
insoluble at (concentration) ([5]; in the GABA current test): insoluble at higher concentrations
solubility ([5]; pH 7.4): > 5 µM
Inhibition of the radiolabeled ligands % Muscimol [3]: 0%
IC50 [2]: 10 µM and ~10 µM

CCCC1(CCC)C(=O)OCC1NS(=O)(=O)c1ccc(C(F)(F)F)cc1 (centres unmarked) [Compound 32, 3-(p-Trifluoromethylphenylsulfonamido)-2,2-di(C-propyl)-1,4-butyrolactone]
Inhibition of the radiolabeled ligands % Muscimol [3]: 0%
Inhibition of the radiolabeled ligands % TBPS ([2]; 10 μM, anterior part of the brain): 100%
Inhibition of TBPS in the cerebellum ([2]; cerebellum): incomplete
stimulation of the binding of flunitrazepam (printed in the % Flu inhibition column) ([4]; 100 μM): 15-20%

CCCC1(CCC)C(=O)OCC1NS(=O)(=O)c1ccc(OC)cc1 (centres unmarked) [Compound 33, 3-(p-Methoxyphenylsulfonamido)-2,2-di(C-propyl)-1,4-butyrolactone]
Inhibition of the radiolabeled ligands % Muscimol [3]: 0%
IC50 [2]: 50 µM
stimulation of the binding of flunitrazepam (printed in the % Flu inhibition column) ([4]; 100 μM): weak

CCCC1(CCC)C(=O)OCC1NC(=O)c1ccccc1 (centres unmarked) [Compound 34]
activation at 2 µM [1, 9]: 17%
activation at 20 µM [1, 9]: 207%
activation at 200 µM [1, 8]: 420%
Inhibition of the radiolabeled ligands % Muscimol [3]: 0%
stimulation of the binding of flunitrazepam (printed in the % Flu inhibition column) ([4]; 100 μM): weak stimulation and weak

C=CCOC(=O)NC1COC(=O)C1(CCC)CCC (centres unmarked) [Compound 35, 3-Allyloxycarbonylamino-2,2-di(C-propyl)-1,4-butyrolactone]
times more powerful than α-EMTBL in stimulating the currents produced by GABA [1]: up to 100 times
activation at 2 µM [1, 9]: 26%
activation at 20 µM [1, 9]: 229%
activation at 200 µM [1, 8]: 765%
Inhibition of the radiolabeled ligands % Muscimol [3]: 0%
stimulation of the binding of flunitrazepam (printed in the % Flu inhibition column) ([4]; 100 μM): weak stimulation and weak

CCCC1(CCC)C(=O)OCC1NC(=O)OCC (centres unmarked) [Compound 36, 3-Ethyloxycarbonylamino-2,2-di(C-propyl)-1,4-butyrolactone]
Inhibition of the radiolabeled ligands % Muscimol [3]: 0%
IC50 [2]: > 100 µM
Inhibition of the radiolabeled ligands % Flu ([4]; 100 μM): 0%

CCC1(C)COC(=O)C1 (centres unmarked) [Compound 54]
convulsant or anticonvulsant effect in mice (mice): convulsant effects

CCC1(C)CCOC1=O (centres unmarked) [Compound 55]
% of stimulation of GABA (concentration) ([6]; 300 μM): +101 ± 8%
convulsant or anticonvulsant effect in mice (mice): anticonvulsant properties
IC50 [7]: 2300 µM

CCC1(CC)CCNC1=O [Compound 58]
% of stimulation of GABA (concentration) ([6]; 1 μM): +137 ± 6%
IC50 [7]: 5800 µM

CC1(CC(F)(F)F)CCSC1=O (centres unmarked) [Compound 60]
% of stimulation of GABA (concentration) ([6]; 300 μM): +160 ± 17%
IC50 [7]: 520 µM

CC1(CC(F)(F)F)CCOC1=O (centres unmarked) [Compound 61]
% of stimulation of GABA (concentration) ([6]; 1 μM): +146 ± 12%
IC50 [7]: 3100 µM
